Laboratory results from patent US20160304461A1, “QUINOLONE COMPOUND AND PHARMACEUTICAL COMPOSITION” (OTSUKA PHARMACEUTICAL CO., LTD., priority 2007, published 2016).

Key:
[1] = tested on: human neuroblastoma cell lines SH-SY5Y; experiment: Improvement of mitochondrial dysfunction in MPP+-treated SH-SY5Y cells (Alamar Blue mitochondrial oxidation reduction activity); type: cell-based; conditions: SH-SY5Y cells in 1.5 mM MPP+ medium, relative to cells in DMSO alone = 100%, read-out: Fluorescence Intensity (%); for activity at 0.01 µg/mL: test compound 0.01 μg/ml; for activity at 0.03 µg/mL: test compound 0.03 μg/ml; for activity at 0.1 µg/mL: test compound 0.1 μg/ml; for activity at 0.3 µg/mL: test compound 0.3 μg/ml; for activity at 1 µg/mL: test compound 1 μg/ml
Description: Evaluation of Improvement of Mitochondrial Dysfunction using Human Neuroblastoma Cell Lines SH-SY5Y Treated with 1-methyl-4-phenylpyridinium (MPP^+)
In human neuroblastoma cell lines SH-SY5Y in which mitochondrial activity was injured by MPP^+ treatment (Bollimuntha S. et al., J Biol Chem, 280, 2132-2140 (2005) and Shang T. et al., J Biol Chem, 280, 34644-34653 (2005)), improvement of the mitochondrial dysfunction was evaluated on the basis of the measurement value of the mitochondrial oxidation reduction activity using Alamar Blue fluorescent dye after the compound addition (Nakai M. et. al, Exp Neurol, 179, 103-110 (2003)).
The human neuroblastoma cell lines SH-SY5Y were cultured in Dulbecco's Modified Eagle's Medium containing 10% fetal bovine serum (DMEM containing 50 units/ml penicillin and 50 μg/ml streptomycin as antibiotics) at 37° C. in the presence of 5% carbon dioxide. Cells were scattered on a poly-D-lysine-coated 96-well black plate at a concentration of 3-6×10^4 cells/cm^2 (medium amount: 100 μl/well), and cultured in the above medium for two days. Further, the medium was changed to a DMEM containing a 1% N2 supplement (N2-DMEM) or to a medium (100 μl/well) in which 1.5 mM MPP^+ was dissolved. The cells were cultured therein for 39 to 48 hours, and then subjected to a mitochondrial oxidation reduction activity measurement system. A sample compound that had been previously dissolved in dimethyl sulfoxide (DMSO) was diluted with N2-DMEM, and added in a volume of 10 μl/well 24 hours before the activity measurement (final compound concentration: 0.01 to 1 μg/ml).
After removal of the medium by suction, a balanced salt solution containing 10% Alamar Blue (154 mM sodium chloride, 5.6 mM potassium chloride, 2.3 mM calcium chloride, 1.0 mM magnesium chloride, 3.6 mM sodium bicarbonate, 5 mM glucose, 5 mM HEPES, pH 7.2) was added in a volume of 100 μl/well, and reacted in an incubator at 37° C. for 1 hour. The fluorescent intensity was detected using a fluorescence detector (a product of Hamamatsu Photonics K.K., excitation wavelength 530 nm, measurement wavelength 580 nm) to thereby measure the mitochondrial oxidation reduction activity.
The fluorescent intensity of the well of the cells cultured in a medium containing MPP^+ and in each of the sample compounds was relatively evaluated based on a 100% fluorescent intensity of the well of the cells cultured in a medium containing DMSO alone (final concentration: 0.1%).

Compound | melting point | activity at 0.01 µg/mL [1] | activity at 0.03 µg/mL [1] | activity at 0.1 µg/mL [1] | activity at 0.3 µg/mL [1] | activity at 1 µg/mL [1]
COc1ccc(-c2c[nH]c3c(OCCCC(F)(F)F)ccc(F)c3c2=O)cc1 [Example 31, 5-Fluoro-3-(4-methoxyphenyl)-8-(4,4,4-trifluorobutoxy)-1H-quinolin-4-one] | 171 to 172 °C | 45% | 45% | 57% | 59% | 48%
CCCOc1ccc(F)c2c(=O)c(-c3cccs3)c[nH]c12 [Example 59, 5-Fluoro-8-propoxy-3-thiophen-2-yl-1H-quinolin-4-one] | 211 to 213 °C | 53% | 56% | 67% | 66% | 54%
CCCOc1ccc(F)c2c(=O)c(-c3ccc(OC)c(OC)c3)c[nH]c12 [Example 62, 3-(3,4-Dimethoxyphenyl)-5-fluoro-8-propoxy-1H-quinolin-4-one] | 217 to 218 °C | 66% | 62% | 79% | 84% | 80%
CCCOc1ccc(F)c2c(=O)c(-c3ccc(OC)nc3)c[nH]c12 [Example 63, 5-Fluoro-3-(6-methoxypyridin-3-yl)-8-propoxy-1H-quinolin-4-one] | 215 to 216 °C | 58% | 65% | 74% | 75% | 85%
CCCOc1ccc(F)c2c(=O)c(-c3ccc(OC)nc3OC)c[nH]c12 [Example 64, 3-(2,6-Dimethoxypyridin-3-yl)-5-fluoro-8-propoxy-1H-quinolin-4-one] | 198 to 199 °C | 55% | 65% | 74% | 72% | 77%
CCCOc1ccc(F)c2c(=O)c(-c3ccc(OC(F)(F)F)cc3)c(C)[nH]c12 [Example 70, 5-Fluoro-2-methyl-8-propoxy-3-(4-trifluoromethoxyphenyl)-1H-quinolin-4-one] | 167 to 168 °C | 56% | 57% | 67% | 71% | 63%
CCCOc1ccc(F)c2c(=O)c(-c3ccc(CC)cc3)c(C)[nH]c12 [Example 71, 3-(4-Ethylphenyl)-5-fluoro-2-methyl-8-propoxy-1H-quinolin-4-one] | 221 to 222 °C | 56% | 61% | 73% | 78% | 72%
COc1ccc(-c2c[nH]c3c(-c4ccco4)ccc(F)c3c2=O)cc1 [Example 86, 5-Fluoro-8-furan-2-yl-3-(4-methoxyphenyl)-1H-quinolin-4-one] | 209 to 211 °C | 52% | 59% | 68% | 61% | 39%

Continued, in another order:

melting point | Compound | activity at 0.01 µg/mL [1] | activity at 0.03 µg/mL [1] | activity at 0.1 µg/mL [1] | activity at 0.3 µg/mL [1] | activity at 1 µg/mL [1]
145 to 146 °C | CCCN(C)c1ccc(F)c2c(=O)c(-c3ccc(OC)cc3)c[nH]c12 [Example 30, 5-Fluoro-3-(4-methoxyphenyl)-8-(N-methyl-N-propylamino)-1H-quinolin-4-one] | 50% | 54% | 69% | 64% | 56%
100 to 101 °C | COCCN(C)c1ccc(F)c2c(=O)c(-c3ccc(OC)cc3)c[nH]c12.Cl [Example 34, 5-Fluoro-8-[N-(2-methoxyethyl)-N-methylamino]-3-(4-methoxyphenyl)-1H-quinolin-4-one hydrochloride] | 69% | 74% | 77% | 78% | 87%
162 to 163 °C | CCCOc1ccc(F)c2c(=O)c(-c3ccc(OCC4CC4)cc3)c[nH]c12 [Example 35, 3-(4-Cyclopropylmethoxyphenyl)-5-fluoro-8-propoxy-1H-quinolin-4-one] | 75% | 88% | 99% | 95% | 65%
142 to 144 °C | COCCOc1ccc(F)c2c(=O)c(-c3ccc(OC)cc3)c[nH]c12 [Example 36, 5-Fluoro-8-(2 methoxyethoxy)-3-(4-methoxyphenyl)-1H-quinolin-4-one] | 63% | 65% | 74% | 71% | 91%
213 to 215 °C | COc1ccc(-c2c[nH]c3c(OC4CCCC4)ccc(F)c3c2=O)cc1 [Example 37, 8-Cyclopentyloxy-5-fluoro-3-(4-methoxyphenyl)-1H-quinolin-4-one] | 64% | 73% | 78% | 70% | 61%
198 to 199 °C | CCCOc1ccc(F)c2c(=O)c(-c3ccc(SC)cc3)c[nH]c12 [Example 38, 5-Fluoro-3-(4-methylsulfanylphenyl)-8-propoxy-1H-quinolin-4-one] | 66% | 67% | 86% | 81% | 78%
173 to 174 °C | CCCSc1ccc(F)c2c(=O)c(-c3ccc(OC)cc3)c[nH]c12 [Example 40, 5-Fluoro-3-(4-methoxyphenyl)-8-propylsulfanyl-1H-quinolin-4-one] | 60% | 64% | 76% | 70% | 72%
167 to 169 °C | COc1ccc(-c2c(C)[nH]c3c(OCC4CC4)ccc(F)c3c2=O)cc1 [Example 47, 8-Cyclopropylmethoxy-5-fluoro-3-(4-methoxyphenyl)-2-methyl-1H-quinolin-4-one] | 51% | 58% | 71% | 73% | 82%
153 to 154 °C | CCCOc1ccc(F)c2c(=O)c(-c3ccc(CC)cc3)c[nH]c12 [Example 53, 3-(4-Ethylphenyl)-5-fluoro-8-propoxy-1H-quinolin-4-one] | 53% | 56% | 67% | 60% | 67%
206 to 207 °C | CCCOc1ccc(F)c2c(=O)c(-c3ccc(N(C)C)cc3)c[nH]c12 [Example 61, 3-(4-Dimethylaminophenyl)-5-fluoro-8-propoxy-1H-quinolin-4-one] | 70% | 65% | 85% | 80% | 86%
150 to 152 °C | CCn1cc(-c2ccc(OC)cc2)c(=O)c2c(F)ccc(OCC3CC3)c21 [Example 66, 8-Cyclopropylmethoxy-1-ethyl-5-fluoro-3-(4-methoxyphenyl)-1H-quinolin-4-one] | 66% | 72% | 83% | 77% | 60%
183 to 184 °C | COc1ccc(-c2c[nH]c3c(-c4ccsc4)ccc(F)c3c2=O)cc1 [Example 87, 5-Fluoro-3-(4-methoxyphenyl)-8-thiophen-3-yl-1H-quinolin-4-one] | 63% | 66% | 79% | 63% | 51%
